Measured values published in patent US20110112056A1, “Use of Carbon-2-Modified-Vitamin D Analogs to Induce the Formation of New Bone” (WISCONSIN ALUMNI RESEARCH FOUNDATION, priority 2002, published 2011).
Entries after “also recorded” stand apart in the source; their conditions may differ. Read-outs that look alike come from different tables or passages of the source.

Key:
[1] = test system: human osteoblast cultures; assay: Bone nodule formation in vitro in human osteoblast cultures (Von Kossa stain); type: cell-based; details: for formation of mineralized bone by osteoblast cultures (Von Kossa stain, FIG. 2): different concentrations (10^−8 to 10^−12 molar)
Excerpt: Human bone samples discarded after surgical procedures from patients undergoing hip/knee replacement surgeries are obtained under an approved IRB protocol (Protocol #2001-055) and processed as described below. These bone pieces are otherwise routinely discarded as waste material during surgery.
The bone pieces are thoroughly washed and cleaned under sterile conditions using phosphate-buffered saline (PBS). These pieces are then cut to obtain smaller pieces (1-2 mm^3) and subjected to enzymatic digestion process to isolate osteoblasts as described below.
Osteoblastic cells are obtained from the bone pieces by collagenase digestion. Briefly, the bone samples are washed twice in PBS and dissected in about 1 mm^3 size fragments which are then sequentially digested in trypsin (1 mg/mL) for ten minutes, followed by dispase (2 mg/mL) for twenty minutes, and bacterial collagenase [Collagenase A] (3 mg/mL) twice for thirty minutes in PBS at 37° C. in a water bath. Cells released by collagenase digestion are then washed, counted and grown to sub-confluence in 25 cm^2 cell culture flasks in 1:1 Ham's F12/Dulbecco's modification of Eagle's medium (DMEM) supplemented with 10% fetal bovine serum. Cells are cultured at 37° C. in a humidified atmosphere of 5% CO2/95% air. Medium changes are made every 2-3 days and cells are cultured until they are 80% confluent. Cells are then trypsinized, washed and frozen from early passages for evaluation using techniques as described below.
In order to evaluate the ability of osteoblasts to form bone nodules in vitro, cells are cultured in 6 well plates at 1-3×10^5 cells/well. Cells are cultured in the presence of either 1,25-(OH)2D3 or vitamin D analogs at various doses for 7 days. Complete medium changes are carried out twice during the 7-day period and the medium is supplemented with fresh compounds (either 1,25-(OH)2D3 or 2-methylene-19-nor-(20S)-1α,25-dihydroxyvitamin D3—2MD) during each medium change. At days 10 and 13, complete medium changes are carried out and the compounds are replaced by treatment with ascorbic acid (50 μg/ml) and β-glycerol phosphate (10 mM). A third dose of ascorbic acid and β-glycerol phosphate is added to the cultures on day 15 if needed. Following the culture period, cells are stained using the Von Kossa technique. Briefly, cells are stained with 5% silver nitrate for 30 minutes in the dark, rinsed with distilled water, reduced with sodium carbonate/formaldehyde solution for 2 minutes and washed under tap water for 10 minutes. The cells are then stained with methyl green pyronin for 20 minutes, washed with water followed by two washes of absolute alcohol. […] Bone nodule formation in vitro can be assessed quantitatively by various published procedures.

post-menopausal women = details: cited from earlier work
ovariectomized rats = details: cited from earlier work; for bone mass: ovariectomized animal; for bone strength: ovariectomized rats

Row | SMILES | change in osteoblast cultures (photographs, FIG. 1) ([1]; 10^−8 molar, after 14 days of incubation) | formation of mineralized bone by osteoblast cultures (Von Kossa stain, FIG. 2) [1] | bone mass (post-menopausal women) | fracture rate (post-menopausal women) | degree of new bone formation ([1]; 10^−12 molar) | bone mass (ovariectomized rats) | bone mass (ovariectomized rats; listed as 2-methylene-19-nor-20S-1,25-(OH)2D3) | bone strength (ovariectomized rats)
1 | C=C1/C(=C\C=C2/CCC[C@]3(C)[C@@H]([C@H](C)CCCC(C)(C)O)CC[C@@H]23)C[C@@H](O)C[C@@H]1O [1,25-(OH)2D3, 1α,25-dihydroxyvitamin D3] | very little change | does not produce this effect; also recorded: minimum effect | will not appreciably increase the bone mass | will decrease the fracture rate |  |  |  | 
2 | C=C1[C@H](O)CC(=C/C=C2\CCC[C@]3(C)[C@@H]([C@@H](C)CCCC(C)(C)O)CC[C@@H]23)C[C@H]1O [2MD, 2-methylene-19-nor-(20S)-1α,25-dihydroxyvitamin D3] |  | unique and strong action |  |  | saturating degree of new bone formation | markedly stimulate bone mass accumulation | increase bone mass | increase bone strength
3 | CC1C(O)CC(=CC=C2CCC[C@]3(C)[C@@H]([C@@H](C)CCCC(C)(C)O)CC[C@@H]23)CC1O (stereo partly drawn) [2α-methyl-19-nor-20S-1,25-(OH)2D3, 2α-methyl-19-nor-20(S)-1α,25-dihydroxyvitamin D3] |  |  |  |  |  | increase bone mass |  | increase bone strength
